According to ChEMBL document CHEMBL1212904, “Discovery of pyrrole-indoline-2-ones as Aurora kinase inhibitors with a different inhibition profile” (J Med Chem, 2010):

How the values were obtained:
[1] = system: Epidermal growth factor receptor (Homo sapiens), P00533 [T790M]; assay: Inhibition of EGFR T790M mutant at 1 uM by radiometric method; type: protein assay
[2] = biological target: Mast/stem cell growth factor receptor Kit (Homo sapiens, UniProt P10721); assay: Inhibition of c-Kit by radiometric method
[3] = system: Serine/threonine-protein kinase B-raf (Homo sapiens), P15056 [V600E]; assay: Inhibition of b-Raf V600E mutant at 1 uM by radiometric method
[4] = biological target: Platelet-derived growth factor receptor beta (Homo sapiens, UniProt P09619); assay: Inhibition of PDGFRbeta at 1 uM by radiometric method
[5] = biological target: PI3-kinase p110-alpha/p85-alpha (Homo sapiens) (UniProt P27986+P42336); assay: Inhibition of PI3K (p110alpha/p85-alpha) at 1 uM by radiometric method; type: protein-complex assay
[6] = biological target: Tyrosine-protein kinase Lck (Homo sapiens) (UniProt P06239); assay: Inhibition of LCK at 1 uM by KINOMEscan binding assay
[7] = biological target: Ephrin type-A receptor 1 (Homo sapiens) (UniProt P21709); assay: Inhibition of EPHA1 at 1 uM by radiometric method
[8] = biological target: Phosphatidylinositol 5-phosphate 4-kinase type-2 gamma (Homo sapiens) (UniProt Q8TBX8); assay: Inhibition of PIP5K2C at 1 uM by KINOMEscan binding assay
[9] = biological target: Rhodopsin kinase GRK7 (Homo sapiens) (UniProt Q8WTQ7); assay: Inhibition of GRK7 at 1 uM by KINOMEscan binding assay
[10] = biological target: Serine/threonine-protein kinase mTOR (Homo sapiens) (UniProt P42345); assay: Inhibition of mTOR at 1 uM by radiometric method
[11] = biological target: ALK tyrosine kinase receptor (Homo sapiens) (UniProt Q9UM73); assay: Inhibition of ALK at 1 uM by radiometric method
[12] = system: HT-29; assay: Antiproliferative activity against human HT-29 cells after 72 hrs by cell titer 96 assay; type: functional, cell-based; conditions: HT-29, 72 h
[13] = biological target: Epithelial discoidin domain-containing receptor 1 (Homo sapiens) (UniProt Q08345); assay: Inhibition of DDR1 at 1 uM by KINOMEscan binding assay
[14] = biological target: Tyrosine-protein kinase JAK2 (Homo sapiens) (UniProt O60674); assay: Inhibition of JAK2 at 1 uM by radiometric method
[15] = biological target: Proto-oncogene tyrosine-protein kinase receptor Ret (Homo sapiens) (UniProt P07949); assay: Inhibition of RET at 1 uM by KINOMEscan binding assay
[16] = Inhibition of CHK2 at 1 uM by radiometric method
[17] = biological target: Mitogen-activated protein kinase 14 (Homo sapiens) (UniProt Q16539); assay: Inhibition of MAPK14 at 1 uM by radiometric method
[18] = biological target: Cyclin-dependent kinase 2/cyclin A (Homo sapiens) (UniProt P24941+P20248+P78396); assay: Inhibition of CDK2/cyclinA at 1 uM by radiometric method; type: protein-complex assay
[19] = biological target: Hepatocyte growth factor receptor (Homo sapiens) (UniProt P08581); assay: Inhibition of c-Met at 1 uM by radiometric method
[20] = biological target: High affinity nerve growth factor receptor (Homo sapiens) (UniProt P04629); assay: Inhibition of TRK at 1 uM by KINOMEscan binding assay
[21] = biological target: PI3K p110 beta/p85 alpha (Homo sapiens) (UniProt P27986+P42338); assay: Inhibition of PI3K (p110beta/p85-alpha) at 1 uM by radiometric method; type: protein-complex assay
[22] = biological target: Fibroblast growth factor receptor 1 (Homo sapiens) (UniProt P11362); assay: Inhibition of FGFR1 at 1 uM by radiometric method
[23] = biological target: 3-phosphoinositide-dependent protein kinase 1 (Homo sapiens) (UniProt O15530); assay: Inhibition of PDK1 at 1 uM by radiometric method
[24] = biological target: Mitogen-activated protein kinase kinase kinase kinase 3 (Homo sapiens) (UniProt Q8IVH8); assay: Inhibition of MAP4K3 at 1 uM by KINOMEscan binding assay
[25] = biological target: Receptor-type tyrosine-protein kinase FLT3 (Homo sapiens) (UniProt P36888); assay: Inhibition of FLT3 at 1 uM by radiometric method
[26] = biological target: Serine/threonine-protein kinase B-raf (Homo sapiens) (UniProt P15056); assay: Inhibition of b-Raf at 1 uM by radiometric method
[27] = biological target: Tyrosine-protein kinase Mer (Homo sapiens) (UniProt Q12866); assay: Inhibition of MERTK at 1 uM by KINOMEscan binding assay
[28] = biological target: Serine/threonine-protein kinase Chk1 (Homo sapiens) (UniProt O14757); assay: Inhibition of CHK1 at 1 uM by radiometric method
[29] = biological target: Serine/threonine-protein kinase 10 (Homo sapiens) (UniProt O94804); assay: Inhibition of LOK at 1 uM by KINOMEscan binding assay
[30] = biological target: Cyclin-dependent kinase 1 (Homo sapiens) (UniProt P06493); assay: Inhibition of CDC2 at 1 uM by radiometric method
[31] = system: HCT-116; assay: Antiproliferative activity against human HCT116 cells after 72 hrs by cell titer 96 assay; type: functional, cell-based; conditions: HCT-116, 72 h
[32] = biological target: Phosphorylase b kinase gamma catalytic chain, skeletal muscle/heart isoform (Homo sapiens) (UniProt Q16816); assay: Inhibition of PHKG1 at 1 uM by KINOMEscan binding assay

Sequence of Mitogen-activated protein kinase kinase kinase kinase 3 (Homo sapiens) (Q8IVH8 whole entry): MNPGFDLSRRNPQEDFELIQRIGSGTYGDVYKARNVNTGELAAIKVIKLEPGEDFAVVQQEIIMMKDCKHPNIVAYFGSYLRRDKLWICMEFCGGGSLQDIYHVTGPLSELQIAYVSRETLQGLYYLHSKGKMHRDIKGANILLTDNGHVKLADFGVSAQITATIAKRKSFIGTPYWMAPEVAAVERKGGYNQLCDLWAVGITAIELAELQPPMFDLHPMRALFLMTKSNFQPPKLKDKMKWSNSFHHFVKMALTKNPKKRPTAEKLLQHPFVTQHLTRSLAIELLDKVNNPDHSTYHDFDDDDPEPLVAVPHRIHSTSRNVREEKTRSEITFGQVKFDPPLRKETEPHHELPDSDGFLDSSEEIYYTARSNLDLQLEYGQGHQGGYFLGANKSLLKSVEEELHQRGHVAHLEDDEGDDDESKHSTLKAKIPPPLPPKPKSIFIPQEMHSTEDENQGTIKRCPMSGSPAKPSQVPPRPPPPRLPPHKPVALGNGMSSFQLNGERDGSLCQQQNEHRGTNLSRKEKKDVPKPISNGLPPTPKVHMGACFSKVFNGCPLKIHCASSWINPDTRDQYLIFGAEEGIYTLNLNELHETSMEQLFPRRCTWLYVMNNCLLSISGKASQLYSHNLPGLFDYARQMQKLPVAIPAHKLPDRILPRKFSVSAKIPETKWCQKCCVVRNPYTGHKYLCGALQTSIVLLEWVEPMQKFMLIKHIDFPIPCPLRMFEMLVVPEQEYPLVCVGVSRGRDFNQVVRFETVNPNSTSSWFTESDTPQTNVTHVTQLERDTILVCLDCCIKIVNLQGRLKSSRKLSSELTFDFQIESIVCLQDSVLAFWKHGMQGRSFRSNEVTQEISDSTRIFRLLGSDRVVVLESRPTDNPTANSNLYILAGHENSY
Sequence of Tyrosine-protein kinase JAK2 (Homo sapiens) (O60674 whole entry): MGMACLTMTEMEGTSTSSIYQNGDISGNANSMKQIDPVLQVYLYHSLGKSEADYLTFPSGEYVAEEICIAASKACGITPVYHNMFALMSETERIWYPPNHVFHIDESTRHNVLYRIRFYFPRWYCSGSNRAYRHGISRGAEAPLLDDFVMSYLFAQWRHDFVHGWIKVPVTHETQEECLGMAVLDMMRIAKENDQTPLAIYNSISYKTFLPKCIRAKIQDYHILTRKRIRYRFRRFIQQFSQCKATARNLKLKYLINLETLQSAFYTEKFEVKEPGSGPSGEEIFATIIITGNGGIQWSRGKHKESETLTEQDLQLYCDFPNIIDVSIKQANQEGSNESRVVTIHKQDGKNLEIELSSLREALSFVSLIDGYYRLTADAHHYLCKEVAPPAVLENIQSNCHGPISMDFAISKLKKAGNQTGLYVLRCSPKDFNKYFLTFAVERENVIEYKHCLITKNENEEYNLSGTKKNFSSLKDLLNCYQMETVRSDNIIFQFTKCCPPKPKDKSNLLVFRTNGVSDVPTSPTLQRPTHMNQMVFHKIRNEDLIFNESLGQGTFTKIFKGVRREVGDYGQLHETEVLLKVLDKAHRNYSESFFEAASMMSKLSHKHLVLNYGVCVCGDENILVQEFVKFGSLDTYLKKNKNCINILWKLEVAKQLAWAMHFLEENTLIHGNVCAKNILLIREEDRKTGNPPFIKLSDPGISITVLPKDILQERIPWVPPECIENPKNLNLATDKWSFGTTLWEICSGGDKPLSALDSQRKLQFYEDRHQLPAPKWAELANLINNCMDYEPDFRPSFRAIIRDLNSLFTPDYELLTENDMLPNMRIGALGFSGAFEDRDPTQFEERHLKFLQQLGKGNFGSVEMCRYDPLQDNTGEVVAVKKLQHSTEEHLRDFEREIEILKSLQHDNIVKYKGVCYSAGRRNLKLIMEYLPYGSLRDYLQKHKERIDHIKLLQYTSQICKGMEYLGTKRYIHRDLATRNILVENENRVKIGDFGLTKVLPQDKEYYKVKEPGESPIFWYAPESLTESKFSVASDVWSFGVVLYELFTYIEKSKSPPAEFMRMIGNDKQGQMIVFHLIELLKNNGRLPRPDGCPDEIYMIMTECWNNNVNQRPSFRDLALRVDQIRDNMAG
Sequence of Tyrosine-protein kinase Mer (Homo sapiens) (Q12866 whole entry): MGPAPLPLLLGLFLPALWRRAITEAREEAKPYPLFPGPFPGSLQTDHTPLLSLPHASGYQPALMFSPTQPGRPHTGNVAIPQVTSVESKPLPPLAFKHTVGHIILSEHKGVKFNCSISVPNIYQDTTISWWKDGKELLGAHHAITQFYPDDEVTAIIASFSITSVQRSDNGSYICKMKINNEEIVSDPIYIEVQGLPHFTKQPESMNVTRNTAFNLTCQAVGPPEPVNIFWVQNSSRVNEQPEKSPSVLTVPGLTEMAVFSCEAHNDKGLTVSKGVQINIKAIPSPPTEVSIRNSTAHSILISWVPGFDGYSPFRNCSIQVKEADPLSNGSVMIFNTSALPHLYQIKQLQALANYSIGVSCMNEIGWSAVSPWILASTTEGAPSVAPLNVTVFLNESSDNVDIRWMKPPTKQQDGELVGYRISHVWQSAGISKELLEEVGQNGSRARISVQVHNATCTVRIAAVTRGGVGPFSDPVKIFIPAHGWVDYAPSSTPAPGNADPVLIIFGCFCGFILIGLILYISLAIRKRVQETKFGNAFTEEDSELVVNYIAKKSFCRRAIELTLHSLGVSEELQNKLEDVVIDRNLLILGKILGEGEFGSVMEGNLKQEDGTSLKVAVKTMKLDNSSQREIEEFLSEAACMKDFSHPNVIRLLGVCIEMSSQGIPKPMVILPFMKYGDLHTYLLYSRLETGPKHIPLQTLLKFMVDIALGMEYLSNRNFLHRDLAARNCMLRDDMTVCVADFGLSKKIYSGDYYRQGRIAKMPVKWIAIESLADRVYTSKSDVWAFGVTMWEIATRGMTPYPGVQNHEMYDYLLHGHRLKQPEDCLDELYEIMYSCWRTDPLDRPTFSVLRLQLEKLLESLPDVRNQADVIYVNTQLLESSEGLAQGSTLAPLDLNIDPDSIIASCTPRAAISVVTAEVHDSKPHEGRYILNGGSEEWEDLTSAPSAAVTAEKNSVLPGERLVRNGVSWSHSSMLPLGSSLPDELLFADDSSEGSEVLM
Sequence of Tyrosine-protein kinase Lck (Homo sapiens) (P06239 2-509 limits assumed): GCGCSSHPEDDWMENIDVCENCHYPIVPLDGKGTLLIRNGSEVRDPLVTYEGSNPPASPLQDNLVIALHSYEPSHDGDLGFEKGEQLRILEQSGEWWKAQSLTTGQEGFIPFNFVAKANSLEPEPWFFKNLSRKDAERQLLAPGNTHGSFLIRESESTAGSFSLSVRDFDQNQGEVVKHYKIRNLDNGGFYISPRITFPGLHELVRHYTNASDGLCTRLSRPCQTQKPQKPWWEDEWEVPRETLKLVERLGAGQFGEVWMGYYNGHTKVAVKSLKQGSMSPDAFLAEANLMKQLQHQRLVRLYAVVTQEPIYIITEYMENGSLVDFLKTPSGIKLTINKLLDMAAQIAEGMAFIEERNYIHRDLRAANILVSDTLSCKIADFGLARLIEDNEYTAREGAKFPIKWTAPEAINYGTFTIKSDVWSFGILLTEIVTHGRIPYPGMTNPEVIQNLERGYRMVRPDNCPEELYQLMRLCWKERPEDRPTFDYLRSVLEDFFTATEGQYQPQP
Sequence of Platelet-derived growth factor receptor beta (P09619 whole entry): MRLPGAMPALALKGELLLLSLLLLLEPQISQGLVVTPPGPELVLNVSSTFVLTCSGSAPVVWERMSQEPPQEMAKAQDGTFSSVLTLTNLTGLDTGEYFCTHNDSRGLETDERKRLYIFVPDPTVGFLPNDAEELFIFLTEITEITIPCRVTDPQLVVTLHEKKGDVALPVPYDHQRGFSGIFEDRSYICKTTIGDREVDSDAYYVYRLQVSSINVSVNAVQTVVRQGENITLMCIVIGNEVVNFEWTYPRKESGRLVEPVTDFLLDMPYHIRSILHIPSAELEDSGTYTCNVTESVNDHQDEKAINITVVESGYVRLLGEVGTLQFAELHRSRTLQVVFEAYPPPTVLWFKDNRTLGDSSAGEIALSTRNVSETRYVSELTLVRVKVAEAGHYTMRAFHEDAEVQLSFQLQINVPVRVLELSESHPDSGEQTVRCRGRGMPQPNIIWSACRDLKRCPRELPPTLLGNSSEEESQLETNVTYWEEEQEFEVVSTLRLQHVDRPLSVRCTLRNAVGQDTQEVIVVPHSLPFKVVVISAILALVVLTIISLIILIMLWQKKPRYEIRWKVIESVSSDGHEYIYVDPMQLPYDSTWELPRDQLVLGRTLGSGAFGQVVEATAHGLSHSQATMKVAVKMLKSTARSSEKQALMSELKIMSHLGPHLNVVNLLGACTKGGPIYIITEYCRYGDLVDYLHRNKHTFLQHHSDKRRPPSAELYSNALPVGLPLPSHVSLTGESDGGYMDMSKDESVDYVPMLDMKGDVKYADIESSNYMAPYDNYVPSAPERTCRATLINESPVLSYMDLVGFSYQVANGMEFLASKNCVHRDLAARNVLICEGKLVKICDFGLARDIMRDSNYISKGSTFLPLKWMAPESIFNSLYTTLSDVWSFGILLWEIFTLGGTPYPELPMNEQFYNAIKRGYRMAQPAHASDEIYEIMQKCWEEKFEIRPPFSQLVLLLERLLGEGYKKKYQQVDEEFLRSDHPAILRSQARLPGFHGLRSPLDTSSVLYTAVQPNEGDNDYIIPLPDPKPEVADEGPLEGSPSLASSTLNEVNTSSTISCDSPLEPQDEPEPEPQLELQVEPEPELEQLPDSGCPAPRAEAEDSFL
Sequence of Cyclin-dependent kinase 1 (Homo sapiens) (P06493 whole entry, looked up): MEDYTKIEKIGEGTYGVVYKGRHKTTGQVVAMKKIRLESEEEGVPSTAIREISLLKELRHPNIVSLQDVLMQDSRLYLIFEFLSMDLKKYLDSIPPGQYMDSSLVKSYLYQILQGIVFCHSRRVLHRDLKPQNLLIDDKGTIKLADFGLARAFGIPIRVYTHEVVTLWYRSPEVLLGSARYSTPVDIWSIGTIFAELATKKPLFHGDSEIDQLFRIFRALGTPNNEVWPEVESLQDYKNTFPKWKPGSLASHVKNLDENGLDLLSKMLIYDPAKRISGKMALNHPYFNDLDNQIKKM

Row | Compound | inhibition [1] | IC50 [2] | inhibition [3] | inhibition [4] | inhibition [5] | residual activity [6] | inhibition [7] | residual activity [8] | residual activity [9] | inhibition [10] | inhibition [11] | IC50 [12] | residual activity [13] | inhibition [14] | residual activity [15] | inhibition [16] | inhibition [17] | inhibition [18] | inhibition [19] | residual activity [20] | also measured
1 | CN(C)CCCc1c(/C=C2\C(=O)Nc3ccc(NS(=O)(=O)c4ccccc4)cc32)[nH]c2c1C(=O)CCC2 | 8% | < 1 µM | -4% | 70% | 5% | < 10% | 24% | < 10% | < 10% | 25% | 85% | 2.97 µM | < 10% | -3% | < 10% | 56% | 11% | 46% | 32% | < 10% | inhibition [21]: -2%; inhibition [22]: 41%; inhibition [23]: 11%; residual activity [24]: < 10%; inhibition [25]: 95%; inhibition [26]: 2%; residual activity [27]: < 10%; inhibition [28]: 58%; residual activity [29]: < 10%; inhibition [30]: 12%; IC50 [31]: 3.69 µM; residual activity [32]: < 10%
2 | CCOC(=O)CCc1c(/C=C2\C(=O)Nc3ccc(NS(=O)(=O)c4ccccc4)cc32)[nH]c2c1C(=O)CCC2 | 14% | > 1 µM | 3% | 47% | 11% | < 10% | 29% | < 10% | < 10% | 9% | 80% | 3.23 µM | < 10% | 30% | < 10% | 17% | 4% | 71% | 32% | < 10% | inhibition [21]: 1%; inhibition [22]: 77%; inhibition [23]: 24%; residual activity [24]: < 10%; inhibition [25]: 97%; inhibition [26]: -1%; residual activity [27]: < 10%; inhibition [28]: 10%; residual activity [29]: < 10%; inhibition [30]: 33%; IC50 [31]: 3.74 µM; residual activity [32]: < 10%
